From patent US20130150399A1, “INHIBITORS OF THE UNFOLDED PROTEIN RESPONSE AND METHODS FOR THEIR USE” (The Board of Trustees of the Leland Stanford Junior …, priority 2006, published 2013) come the findings set out here.

Assay [1] has as its system XBP-luciferase reporter. Nature of the assay: In vivo bioluminescence imaging of XBP-luciferase reporter tumor xenografts. Also on record: species or system SCID mice. The protocol: HT1080 fibrosarcoma cells (2×10^6) stably expressing the XBP-luciferase reporter were implanted s.c. into severe combined immune deficient (SCID) mice. Ten minutes prior to imaging, mice were injected i.p. with D-luciferin (150 mg/kg) solubilized in PBS. Optical bioluminescence imaging was performed using the IVIS charged-coupled device camera system (Caliper Life Sciences, Hopkinton, Mass.). Mice were imaged for 1-4 minutes per acquisition scan. Signal intensities were analyzed using Living Image software (Caliper).
A. Irestatin 9389 impairs IRE1α activity in implanted tumor xenografts. Equal numbers (2×10^6) of XBP-luciferase or CMV-luciferase reporter cells were implanted s.c. into SCID mice. After one week, mice were treated with irestatin 9389 (50 mg/kg), followed by optical bioluminescence imaging. B. Inhibition of tumor growth by irestatin 9389. HT1080 s.c. tumor xenografts were established in SCID mice and allowed to reach a mean volume of 150 mm^3 before treatment. Irestatin 9389 (50 mg/kg) or vehicle control was administered q 2d by i.p. injection and continued for 2 weeks, for a total of 6 doses. Tumor volumes were calculated based on caliper measurements taken every 3-5 days. Data points represent the mean volume calculated from at least 7 tumors per group, with SEM shown in one direction. Mean mouse weights+/−SEM are shown in bottom graph. C.
The increased sensitivity of irestatin-treated cells to hypoxic stress in vitro indicate that selective inhibition of IRE1α signaling could impact tumor growth. […] In contrast, XBP-1s was not detected in normal pancreas specimens (0/20), and infrequently observed in chronic pancreatitis (1/29) (FIG. 15). To explore the effects to irestatin 9389 in vivo, we first established animal dosing parameters using real-time bioluminescence imaging of SCID mice that had been implanted subcutaneously (s.c.) with tumor cells stably expressing the XBP-luciferase reporter. […] The XBP-luciferase signal returned to basal levels by 24 hours after treatment. […] (FIG. 16).

The subject of assay [2] is IRE1α. Nature of the assay: Western immunoblot of total IRE1α, HT1080 cells. It counts as cell-based, human. Particulars: 2.5 μM, 16 hours. Here is the method: Cells (2×10^6) were cultured in 10-cm dishes, collected using a cell scraper at 4° C., and lysed by addition of 150 μl cell lysis buffer [50 mM Tris pH 7.4, 150 mM NaCl, 10% glycerol, 0.5% Triton X-100. 0.5% NP-40, 2 mM Na3VO4, 20 mM beta-glycerophosphate, 10 mM NaF, 1 mM DTT, 1 mM PMSF). Lysates were centrifuged for 5 min at 10,000×g, and proteins (˜40 μg) were resolved by SDS-PAGE followed by semi-dry transfer to nitrocellulose membranes. Membranes were blocked in TBS-5% milk supplemented with 0.1% Tween-20. The blots were then probed overnight with relevant antibodies, washed, and incubated for 2 hours with species-specific secondary antibodies conjugated to horseradish peroxidase. After washing in block solution, immunoreactive material was detected by enhanced chemiluminescence (SuperSignal West Dura Extended, Pierce, Inc., Rockville, Ill.).
HT1080 cells were exposed to DMSO vehicle (lane 1), irestatin 9389 (2.5 μM; lane 2) for 16 hours or Tm (5 μg/ml; lane 3) for 8 hours. Following treatments, cells were harvested, lysed, and analyzed by immunoblotting using anti-Grp78 antibody (top) or anti-actin (bottom) as a loading control. […] Cell lysates were analyzed by Western immunoblotting using anti-IRE1α (bottom) or anti-phospho-IRE1α antibodies (top). […] Lysates were analyzed by Western blot using antisera specific for phospho-JNK1 (top) or total JNK1 (bottom). […]

Bounds are passed on as bounds.

For `Cc1csc(NC(=O)CSc2nc3c(c(C(F)(F)F)c2C#N)CCC3)n1` [Compound 9389], the “time by which XBP-luciferase signal returned to basal levels” value in assay [1] (after treatment, 50-60 mg/kg) was ≤ 24 h. Besides, in assay [1] (single doses of 50-60 mg/kg), the “duration of XBP-luciferase reporter inhibition after the injection” value is 6 to 8 h and the “inhibition of XBP-luciferase reporter in tumors” value was “robustly inhibited”. For the same compound, the “total level of IRE1α” value in assay [2] is “no significant changes in the total level of IRE1α”.
